US10854312B2, “Selective peptide antagonists” (BIONIZ, LLC, priority 2013, dated 2020)
“Also recorded” adds a separate entry of the source. No end group written: not given here.

Legend:
Assay type in all cases: cell-based
mouse IL-4 = experiment: PT-18 proliferation assay (WST-1), IL-4; settings: murine PT-18 cells, mouse IL-4, BNZ132-1 50 nM, 500 nM, 5 μM
Description: FIG. 6A-FIG. 6E presents inhibitory spectrum of BNZ132-1 over γc- and non-γc-cytokines. […] Neutralizing antibodies against each cytokine (R & D systems, 5 μg ml^−1) were included as controls. After 20 h, the cells were pulsed with WST-1 (Clontech) and OD450 of each well was measured after 6 h. A 19-mer scrambled peptide was used as a negative control at 5 μM. The experiments were conducted in triplicate (applies to all experiments in FIG. 6A-FIG. 6E). The result represents one of at least three independent experiments (applies to all experiments in FIG. 6A-FIG. 6E). […] In PT-18 proliferation assay, PT-18β or PT-18h21Rα cells were withdrawn of mouse IL-3 for 12 h before the experiment. Cells were then incubated with 1 nM of mouse IL-4, mouse IL-9, or mouse IL-21 in the presence or absence of the indicated doses (μM) of BNZ132-1. Neutralizing antibodies to each cytokine (5 μg ml^−1, except for anti-mouse IL-21 polyclonal antibody which was used at 15 μg ml−1) and a scrambled control peptide (5 μM) were included as negative controls. WST-1 assay was conducted as described above. […] In PT-18 h21Rα survival assay, PT-18h21Rα cells are described in the text. […] Both parental and hIL-21Rα positive PT-18 cells were washed and incubated without IL-3 for 12 h before the assay. […] The Y-axis represents the cpm (count per minute) values measured by a β-counter. […]

human IL-9 = experiment: NK92 cell proliferation assay (WST-1), IL-9; settings: 24 h
Description: Human peripheral blood mononuclear cells were purified by the Ficoll-paque gradient centrifugation (GE-Healthcare) and stimulated by PHA (5 μg ml^−1, Sigma) for 48 h, then expanded with IL-2 (0.5 nM, Peprotech) for 48h, and then depleted of non-T cells by the Pan-T cell negative enrichment Ab cocktails (Miltenyi). The purified T cells were then fasted of IL-2 overnight prior to the proliferation assay by the tetrazolium dye method. Four hundred thousand cells (in 200 μl culture) were incubated with the cytokines and BNZ132-1 at the indicated concentrations for 24 h, and 20 μl WST1 reagent (Clontech) was added to each well. After 12 h incubation, OD450 was measured. The assay was performed in triplicate. […] NK 92 cells were cultured in human IL-2. Cells were washed to withdraw IL-2 for overnight and two hundred thousand cells (in 200 μl volume) were incubated with the indicated concentrations of the cytokine and BNZ132-1 for 24 h before 20 μl WST-1 reagent (Clontech) was added to each well to measure proliferative response. Absorbance at 450 nm was read at 6 h after the addition of the WST-1 dye. The assay was performed in triplicate. The assay was performed in triplicate and the figure represents a typical result out of 5 different HAM-TSP patients.

human IL-2 signal = experiment: Western blot of phosphorylation downstream of IL-2 in human PBMC / peripheral T cells
Description: FIG. 9C presents IL-2 signal in human PBMC was blocked by BNZ132-1. Human PBMCs were prepared (Ficoll-paque), activated (by PHA) expanded (by IL-2), and purified by magnetic negative selection as described in the methodology section. After 24 h of IL-2 depletion, the PBMCs were stimulated by 1 nM IL-2 in the presence or absence of BNZ132-1 (0.5 or 0.1 μM) for 20 min before the cellular protein extraction. Phosphorylation of individual proteins was visualized by phosphor-specific antibodies (Cell Signaling), followed by ECL. Lanes: 1. no stimulation, 2. IL-2 stimulation, 3. IL-2+BNZ132-1 (high dose), 4. IL-2+BNZ132-1 (low dose). In all blots, anti-Vinculin antibody (Sigma) was used to validate nearly-equal protein loading.

With IKEFLQRFIHIVQSIINTS [BNZ132-1] the “inhibition of IL-4-induced proliferation of PT-18 cells” value (mouse IL-4) was “did not inhibit”, the “inhibition of IL-9-induced proliferation of NK92 cells” value (human IL-9) was “dose-dependent inhibition” and the “inhibition of IL-2 signal (phosphorylation)” value (human IL-2 signal; human PBMC/peripheral T cells, 1 nM IL-2, BNZ132-1 0.5 or 0.1 μM, 20 min) was “comprehensively inhibited; also recorded: blocked”. For the same sequence, the “differential inhibition of individual signaling pathways at suboptimal dose” value (human IL-2 signal; low dose BNZ132-1 (0.1 μM), IL-2, human peripheral T cells) was “Akt and p38 are more sensitive than Jak3 and STAT5”.
